Reference: paper PMC5078040 (Oncotarget, 2016)

Legend:
[1] = biological target: T1, AMPK-alpha1 (Homo sapiens, UniProt Q13131); assay: KinomeScan; format: binding; conditions: 1uM
T1 construct: purchased DiscoveRx KINOMEscan

[2] = biological target: T2, BRSK1 (Homo sapiens, UniProt Q8TDC3); assay: KinomeScan; format: binding; conditions: 1uM
T2 construct: purchased DiscoveRx KINOMEscan

[3] = biological target: T3, CDK3 (Homo sapiens, UniProt Q00526); assay: KinomeScan; format: binding; conditions: 1uM
T3 construct: purchased DiscoveRx KINOMEscan

[4] = biological target: T4, CHEK2 (Homo sapiens, UniProt O96017); assay: KinomeScan; format: binding; conditions: 1uM
T4 construct: purchased DiscoveRx KINOMEscan

[5] = biological target: T5, DCAMKL2 (Homo sapiens, UniProt Q8N568); assay: KinomeScan; format: binding; conditions: 1uM
T5 construct: purchased DiscoveRx KINOMEscan

[6] = biological target: T6, DRAK1 (Homo sapiens, UniProt Q9UEE5); assay: KinomeScan; format: binding; conditions: 1uM
T6 construct: purchased DiscoveRx KINOMEscan

[7] = biological target: T7, DYRK1A (Homo sapiens, UniProt Q13627); assay: KinomeScan; format: binding; conditions: 1uM
T7 construct: purchased DiscoveRx KINOMEscan

[8] = biological target: T8, EPHB1 (Homo sapiens, UniProt P54762); assay: KinomeScan; format: binding; conditions: 1uM
T8 construct: purchased DiscoveRx KINOMEscan

[9] = biological target: T9, IKK-epsilon (Homo sapiens, UniProt Q14164); assay: KinomeScan; format: binding; conditions: 1uM
T9 construct: purchased DiscoveRx KINOMEscan

[10] = biological target: T10, INSR (Homo sapiens, UniProt P06213); assay: KinomeScan; format: binding; conditions: 1uM
T10 construct: purchased DiscoveRx KINOMEscan

[11] = biological target: T11, LIMK1 (Homo sapiens, UniProt P53667); assay: KinomeScan; format: binding; conditions: 1uM
T11 construct: purchased DiscoveRx KINOMEscan

[12] = biological target: T12, LOK (Homo sapiens, UniProt O94804); assay: KinomeScan; format: binding; conditions: 1uM
T12 construct: purchased DiscoveRx KINOMEscan

[13] = biological target: T13, MAP3K3 (Homo sapiens, UniProt Q99759); assay: KinomeScan; format: binding; conditions: 1uM
T13 construct: purchased DiscoveRx KINOMEscan

[14] = biological target: T14, NIM1 (Homo sapiens, UniProt Q8IY84); assay: KinomeScan; format: binding; conditions: 1uM
T14 construct: purchased DiscoveRx KINOMEscan

[15] = biological target: T15, OSR1 (Homo sapiens, UniProt O95747); assay: KinomeScan; format: binding; conditions: 1uM
T15 construct: purchased DiscoveRx KINOMEscan

[16] = biological target: T16, PIM3 (Homo sapiens, UniProt Q86V86); assay: KinomeScan; format: binding; conditions: 1uM
T16 construct: purchased DiscoveRx KINOMEscan

[17] = biological target: T17, PIP5K2C (Homo sapiens, UniProt Q8TBX8); assay: KinomeScan; format: binding; conditions: 1uM
T17 construct: purchased DiscoveRx KINOMEscan

[18] = biological target: T18, ROS1 (Homo sapiens, UniProt P08922); assay: KinomeScan; format: binding; conditions: 1uM
T18 construct: purchased DiscoveRx KINOMEscan

[19] = biological target: T19, SRMS (Homo sapiens, UniProt Q9H3Y6); assay: KinomeScan; format: binding; conditions: 1uM
T19 construct: purchased DiscoveRx KINOMEscan

[20] = biological target: T20, TAOK2 (Homo sapiens, UniProt Q9UL54); assay: KinomeScan; format: binding; conditions: 1uM
T20 construct: purchased DiscoveRx KINOMEscan

[21] = biological target: T21, TESK1 (Homo sapiens, UniProt Q15569); assay: KinomeScan; format: binding; conditions: 1uM
T21 construct: purchased DiscoveRx KINOMEscan

[22] = biological target: T22, TRKC (Homo sapiens, UniProt Q16288); assay: KinomeScan; format: binding; conditions: 1uM
T22 construct: purchased DiscoveRx KINOMEscan

[23] = system: CLL patient primary cell; assay: Anti-proliferative efficacy against patient primary cells; format: cell-based; conditions: Homo sapiens
Procedure: Peripheral blood mononuclear cells (PBMCs) from individuals with CLL were isolated by density centrifugation through Ficoll and frozen for each subject. Those subjects with low white counts whose CLL cell purity was expected to be < 85% underwent B cell isolation using RosetteSep. The protocol was approved by the Dana-Farber Harvard Cancer Center Institutional Review Board and all subjects signed written informed consent prior to participation.
Cells were grown in 96-well culture plates (3000-4000/well). […] Cell proliferation was determined after treatment with compounds for 72 hours. Cell viability was measured using the CellTiter–Glo Assay Kit (Promega, USA), according to the manufacturer's instructions, and luminescence was measured in a multi-label reader (Envision, PerkinElmer, USA). Data were normalized to control groups (DMSO) and represented by the mean of three independent measurements with standard error <20%. GI50 values were calculated using Prism 5.0 (GraphPad Software, San Diego, CA).

T5 sequence (Q8N568 whole entry): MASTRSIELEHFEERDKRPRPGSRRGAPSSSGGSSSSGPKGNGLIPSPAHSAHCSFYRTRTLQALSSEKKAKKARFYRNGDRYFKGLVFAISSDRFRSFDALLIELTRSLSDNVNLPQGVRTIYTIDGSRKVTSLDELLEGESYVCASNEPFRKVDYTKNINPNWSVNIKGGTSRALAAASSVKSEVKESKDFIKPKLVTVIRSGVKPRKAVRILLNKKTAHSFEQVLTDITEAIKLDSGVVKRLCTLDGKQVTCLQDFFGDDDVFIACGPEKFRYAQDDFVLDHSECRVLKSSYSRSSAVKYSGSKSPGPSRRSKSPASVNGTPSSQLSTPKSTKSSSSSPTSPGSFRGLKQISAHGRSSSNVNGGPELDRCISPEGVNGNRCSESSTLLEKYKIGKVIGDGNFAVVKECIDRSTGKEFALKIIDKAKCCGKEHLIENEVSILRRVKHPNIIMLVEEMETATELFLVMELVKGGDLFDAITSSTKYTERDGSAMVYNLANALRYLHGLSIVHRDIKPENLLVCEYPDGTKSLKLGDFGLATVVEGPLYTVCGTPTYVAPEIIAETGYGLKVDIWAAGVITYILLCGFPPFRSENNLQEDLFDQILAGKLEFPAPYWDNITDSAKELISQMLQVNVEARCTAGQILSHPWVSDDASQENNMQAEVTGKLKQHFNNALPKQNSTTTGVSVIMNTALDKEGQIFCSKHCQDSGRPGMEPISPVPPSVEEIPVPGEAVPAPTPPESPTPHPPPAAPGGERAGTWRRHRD
T14 sequence (Q8IY84 whole entry): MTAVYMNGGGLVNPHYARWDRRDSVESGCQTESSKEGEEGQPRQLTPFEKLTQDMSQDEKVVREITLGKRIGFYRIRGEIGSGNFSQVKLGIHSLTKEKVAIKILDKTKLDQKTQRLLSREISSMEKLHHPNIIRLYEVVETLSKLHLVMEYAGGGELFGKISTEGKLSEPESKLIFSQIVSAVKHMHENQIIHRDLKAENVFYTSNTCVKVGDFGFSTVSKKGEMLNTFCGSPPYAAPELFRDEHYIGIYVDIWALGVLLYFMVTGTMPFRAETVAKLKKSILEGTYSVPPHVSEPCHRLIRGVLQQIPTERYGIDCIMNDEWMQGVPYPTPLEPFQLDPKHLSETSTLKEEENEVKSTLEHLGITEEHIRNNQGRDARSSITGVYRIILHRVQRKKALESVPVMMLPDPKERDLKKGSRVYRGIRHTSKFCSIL
T4 sequence (O96017 whole entry): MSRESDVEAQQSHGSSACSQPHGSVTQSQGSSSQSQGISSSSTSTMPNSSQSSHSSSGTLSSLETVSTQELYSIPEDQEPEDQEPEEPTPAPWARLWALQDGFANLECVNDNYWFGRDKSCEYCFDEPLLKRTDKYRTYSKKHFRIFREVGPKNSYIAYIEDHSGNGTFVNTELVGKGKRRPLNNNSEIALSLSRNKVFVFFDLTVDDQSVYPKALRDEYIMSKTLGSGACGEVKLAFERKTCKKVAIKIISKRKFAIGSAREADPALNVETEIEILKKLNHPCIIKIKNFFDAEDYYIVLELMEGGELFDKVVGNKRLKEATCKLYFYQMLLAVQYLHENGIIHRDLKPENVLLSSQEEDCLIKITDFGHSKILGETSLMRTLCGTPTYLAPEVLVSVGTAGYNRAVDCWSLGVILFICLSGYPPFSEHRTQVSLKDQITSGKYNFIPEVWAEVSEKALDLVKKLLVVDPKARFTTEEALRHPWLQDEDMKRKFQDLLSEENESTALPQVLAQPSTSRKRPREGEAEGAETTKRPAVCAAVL
T15 sequence (O95747 whole entry): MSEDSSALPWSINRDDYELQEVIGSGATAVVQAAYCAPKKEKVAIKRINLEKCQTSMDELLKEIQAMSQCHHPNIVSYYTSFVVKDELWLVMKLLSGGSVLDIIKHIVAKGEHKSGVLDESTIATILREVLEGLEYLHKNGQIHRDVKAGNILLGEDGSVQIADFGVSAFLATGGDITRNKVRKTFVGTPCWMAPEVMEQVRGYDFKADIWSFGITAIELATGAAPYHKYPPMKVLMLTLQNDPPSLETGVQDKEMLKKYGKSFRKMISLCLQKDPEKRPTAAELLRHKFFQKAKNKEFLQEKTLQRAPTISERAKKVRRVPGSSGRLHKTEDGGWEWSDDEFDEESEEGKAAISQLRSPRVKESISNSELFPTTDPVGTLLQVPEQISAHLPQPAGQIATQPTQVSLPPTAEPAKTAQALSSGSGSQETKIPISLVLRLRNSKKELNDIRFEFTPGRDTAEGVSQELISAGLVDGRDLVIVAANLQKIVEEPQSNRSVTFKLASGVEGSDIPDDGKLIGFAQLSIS
T17 sequence (Q8TBX8 whole entry): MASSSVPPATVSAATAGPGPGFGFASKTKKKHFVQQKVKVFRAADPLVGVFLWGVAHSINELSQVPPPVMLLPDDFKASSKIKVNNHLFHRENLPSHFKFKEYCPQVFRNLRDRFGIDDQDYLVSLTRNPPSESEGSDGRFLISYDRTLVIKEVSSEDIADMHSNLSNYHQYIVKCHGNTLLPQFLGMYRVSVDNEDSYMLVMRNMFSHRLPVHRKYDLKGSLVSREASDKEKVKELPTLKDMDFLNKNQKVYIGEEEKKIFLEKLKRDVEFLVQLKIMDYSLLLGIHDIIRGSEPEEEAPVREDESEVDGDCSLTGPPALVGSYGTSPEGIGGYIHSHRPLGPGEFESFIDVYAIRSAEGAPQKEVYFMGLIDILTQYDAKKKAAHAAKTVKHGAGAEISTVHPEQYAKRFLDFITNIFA
T8 sequence (P54762 18-984): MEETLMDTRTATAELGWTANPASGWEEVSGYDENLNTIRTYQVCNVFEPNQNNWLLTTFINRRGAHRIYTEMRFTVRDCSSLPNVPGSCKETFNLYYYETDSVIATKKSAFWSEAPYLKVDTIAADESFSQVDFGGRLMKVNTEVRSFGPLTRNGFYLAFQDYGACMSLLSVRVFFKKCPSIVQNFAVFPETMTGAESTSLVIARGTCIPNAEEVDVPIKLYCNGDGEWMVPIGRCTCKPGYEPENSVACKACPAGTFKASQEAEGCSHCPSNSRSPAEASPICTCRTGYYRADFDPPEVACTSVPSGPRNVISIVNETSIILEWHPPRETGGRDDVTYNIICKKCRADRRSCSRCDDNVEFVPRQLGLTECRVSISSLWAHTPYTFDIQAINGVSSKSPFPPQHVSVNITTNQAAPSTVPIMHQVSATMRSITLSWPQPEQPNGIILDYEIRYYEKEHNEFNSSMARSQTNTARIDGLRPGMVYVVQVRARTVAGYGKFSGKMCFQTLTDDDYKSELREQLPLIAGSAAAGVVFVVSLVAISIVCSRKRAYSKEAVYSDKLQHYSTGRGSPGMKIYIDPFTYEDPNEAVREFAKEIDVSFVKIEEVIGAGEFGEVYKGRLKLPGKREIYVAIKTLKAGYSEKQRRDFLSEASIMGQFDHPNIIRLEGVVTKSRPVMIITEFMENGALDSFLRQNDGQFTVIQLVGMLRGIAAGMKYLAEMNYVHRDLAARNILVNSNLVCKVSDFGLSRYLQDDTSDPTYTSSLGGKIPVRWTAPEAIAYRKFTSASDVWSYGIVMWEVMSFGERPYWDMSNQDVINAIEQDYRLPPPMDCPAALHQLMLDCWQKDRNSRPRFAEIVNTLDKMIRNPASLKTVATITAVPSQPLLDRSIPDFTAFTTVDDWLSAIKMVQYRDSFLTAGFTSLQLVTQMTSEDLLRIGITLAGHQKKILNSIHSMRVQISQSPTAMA
T19 sequence (Q9H3Y6 whole entry): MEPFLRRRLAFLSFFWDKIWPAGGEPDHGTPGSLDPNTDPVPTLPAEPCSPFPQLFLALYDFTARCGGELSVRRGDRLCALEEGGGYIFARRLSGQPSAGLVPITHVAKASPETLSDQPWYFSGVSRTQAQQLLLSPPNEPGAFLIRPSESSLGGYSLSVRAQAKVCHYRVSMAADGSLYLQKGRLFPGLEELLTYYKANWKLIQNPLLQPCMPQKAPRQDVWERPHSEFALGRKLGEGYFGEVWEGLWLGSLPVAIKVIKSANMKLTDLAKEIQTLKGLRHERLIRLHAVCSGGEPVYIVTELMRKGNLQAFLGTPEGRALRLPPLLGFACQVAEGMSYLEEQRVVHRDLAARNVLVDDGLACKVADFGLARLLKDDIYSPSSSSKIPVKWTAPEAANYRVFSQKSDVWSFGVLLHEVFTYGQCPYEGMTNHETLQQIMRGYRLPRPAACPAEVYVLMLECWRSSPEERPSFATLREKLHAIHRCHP
T3 sequence (Q00526 whole entry): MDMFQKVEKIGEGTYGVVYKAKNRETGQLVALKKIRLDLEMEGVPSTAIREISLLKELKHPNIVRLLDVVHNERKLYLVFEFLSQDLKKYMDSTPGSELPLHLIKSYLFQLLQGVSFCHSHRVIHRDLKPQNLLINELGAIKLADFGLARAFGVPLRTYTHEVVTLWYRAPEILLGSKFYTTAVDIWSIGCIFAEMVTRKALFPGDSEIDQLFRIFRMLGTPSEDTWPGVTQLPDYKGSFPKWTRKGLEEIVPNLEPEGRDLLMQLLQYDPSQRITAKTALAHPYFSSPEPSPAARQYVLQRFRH

Cc1nc(NC(=O)[C@@H](N)C(C)C)sc1-c1cnc(Cl)c(NS(=O)(=O)c2ccccc2)c1 [PI3KD-IN-015]
KinomeScan AMPK-alpha1 [1]: 100
KinomeScan BRSK1 [2]: 100
KinomeScan CDK3 [3]: 100
KinomeScan CHEK2 [4]: 88
KinomeScan DCAMKL2 [5]: 100
KinomeScan DRAK1 [6]: 91
KinomeScan DYRK1A [7]: 89
KinomeScan EPHB1 [8]: 100
KinomeScan IKK-epsilon [9]: 100
KinomeScan INSR [10]: 74
KinomeScan LIMK1 [11]: 100
KinomeScan LOK [12]: 99
KinomeScan MAP3K3 [13]: 100
KinomeScan NIM1 [14]: 100
KinomeScan OSR1 [15]: 75
KinomeScan PIM3 [16]: 100
KinomeScan PIP5K2C [17]: 90
KinomeScan ROS1 [18]: 99
KinomeScan SRMS [19]: 90
KinomeScan TAOK2 [20]: 96
KinomeScan TESK1 [21]: 100
KinomeScan TRKC [22]: 100
GI50 ([23]; patient primary cell CLL16): 7.8 µM
GI50 ([23]; patient primary cell CLL18): > 10 µM
GI50 ([23]; patient primary cell CLL19): 1.5 µM
